Measured values as given in article PMC8347432 (2021).

Columns and labels:
[1] = system: octamer duplex d(GCGATCGC)2 (3) (DNA, duplex) GCGATCGC; assay: 1H NMR titration (chemical shift); settings: 25 mM NaCl, 25 mM K3PO4, D2O buffer, pH 6.0, 10 °C, 0.29 mM compound
[2] = system: octamer duplex d(GCGATCGC)2 (3) (DNA, duplex) GCGATCGC; assay: DOSY NMR (PGSE diffusion coefficients); settings: 25 mM NaCl, 25 mM K3PO4, D2O buffer, pH 6.4, 10 °C, 0.29 mM compound

| Ka [1] [mM⁻¹] | Ka ([2]; 0.87 mM octamer) [mM⁻¹] | Ka ([1]; 5.89 ± 1.07 omitting H12 and H14) [mM⁻¹] | Ka ([2]; 0.92 mM octamer) [mM⁻¹] | Structure (SMILES) |
| --- | --- | --- | --- | --- |
| 3.76 ± 1.19 | 2.0 ± 0.3 |  |  | CCc1c2c(nc3ccc(O)c(CN4CCC4)c13)-c1cc3c(c(=O)n1[C@@H]2CO)COC(=O)[C@]3(O)CC |
|  |  | 5.00 ± 2.02 | 5.9 ± 0.3 | CCc1c2c(nc3ccc(O)c(CN4CCC4)c13)-c1cc3c(c(=O)n1[C@H]2CO)COC(=O)[C@]3(O)CC |
